This experiment concerns subject. In words: Electrocardiography before and after oral ingestion of NMN capsules in a subject with suspected ventricular extrasystole. The class given is in vivo, human. Here is the method:
On Jun. 4, 2020, electrocardiography was performed on a subject by placing the subject in the supine position, putting clips on the extremities, attaching electrodes to the chest, and using an electrocardiograph (product name: Electrocardiograph ECG-2250, manufactured by NIHON KOHDEN CORPORATION) with leads I to III and leads aVR, aVL, and aVF. The paper feed speed of the electrocardiogram was set to 25 mm/second, and the vertical axis was set to 1 mV=10 mm for recording. The result is indicated in the electrocardiogram of FIG. 2 (horizontal axis: time (second), vertical axis: electric potential (mV)).
Afterwards, from Oct. 18, 2020, the subject was caused to ingest (take orally) one capsule per day of NMN pure 3000 plus (NMN 50 mg/capsule, manufactured by MIRAILAB BIOSCIENCE Inc., trade name) for 47 consecutive days.
Then, on Jan. 4, 2021, electrocardiography was performed again on the above-described subject similarly as described above. The result is indicated in the electrocardiogram of FIG. 3 (horizontal axis: time (second), vertical axis: electric potential (mV)). […] From this, it was confirmed that NMN ingestion was effective for electrocardiogram abnormalities and arrhythmias.

For the setting “after ingestion of one capsule per day (NMN 50 mg/capsule) for 47 consecutive days, 69 bpm before ingestion”, `NC(=O)c1ccc[n+]([C@@H]2O[C@H](COP(=O)([O-])O)[C@@H](O)[C@H]2O)c1` [NMN, nicotinamide mononucleotide] returned a heart rate of 57 bpm. For the setting “one subject, one capsule per day (NMN 50 mg/capsule) orally for 47 consecutive days, ECG on Jan. 4, 2021”, the electrocardiogram waveforms result is “appeared with regularity in order”. The “QRS complexes having a wide and odd-shaped waveform” value (one subject, one capsule per day (NMN 50 mg/capsule) orally for 47 consecutive days, ECG on Jan. 4, 2021, complexes were recognized before ingestion) is on record as “not recognized”. In addition, the “effect on electrocardiogram abnormalities and arrhythmias” value (overall conclusion, one subject, NMN 50 mg/day orally for 47 consecutive days) was “effective”.
